Experimental data reported in patent US10513511B2, “Aqueous suspension formulation comprising 4-(4-(4-(((3R,5R)-5-((1H-1,2,4-triazol-1-yl)methyl)-5-(2,4-difluoro-phenyl)tetrahydrofuran-3-yl)methoxy)-3-methylphenyl) or a pharmaceutically acceptable salt thereof” (PULMOCIDE LIMITED, priority 2015, dated 2019).
Converted amounts (≈) assume the structure as drawn. Where two headings read alike, the source gives them in different places.

Columns and labels:
Type in all cases: cell-based
[1] = test system: Aspergillus fumigatus NCPF2010; assay: Planktonic fungus growth: broth microdilution assay (NCPF2010)
Protocol: (§1) This assay was conducted using a modified method published by EUCAST (Rodriguez-Tudela, et al., 2008). Spores of Aspergillus fumigatus (NCPF2010, NCPF7010 [methionine 220 mutation], NCPF7099 [Glycine G54 mutation]) from Public Health England, Wiltshire; TR34/L98H mutants from St Louis Hospital, Paris, France; TR46/Y121F/T289A mutants from University of Delhi, Delhi, India) were cultured in Sabouraud dextrose agar for 3 days. A stock spore suspension was prepared from a Sabouraud dextrose agar culture by washing with PBS-tween (10 mL; phosphate buffered saline containing 0.05% Tween-20, 100 U/mL penicillin and 100 U/mL streptomycin). The spore count was assessed using a Neubauer haemocytometer and then adjusted to 10^6 spores/mL with PBS. A working suspension of spores (2×10^5 spores/mL) was prepared in filter sterilised, BSA MOPS RPMI-1640 (50 mL; RPMI-1640 containing 2 mM L-glutamine, 0.5% BSA, 2% glucose, 0.165 M MOPS, buffered to pH 7 with NaOH).
(§2) For the assay, BSA MOPS RPMI-1640 (50 μL/well) was added throughout the 384-well plate (Catalogue number 353962, BD Falcon, Oxford, UK) first. Test compounds (0.5 μL DMSO solution) were then added in quadruplicate using an Integra VIAFLO 96 (Integra, Zizers, Switzerland), and mixed well using a plate mixer. Subsequently 50 μL of the working spore suspension prepared above was added to all wells except non-spore control wells. For non-spore control wells, BSA MOPS-RPMI solution (50 μL/well) was added instead. The plate was covered with a plastic lid, and incubated (35° C. with ambient air) for 48 hr. The OD of each well at 530 nm was determined using a multi-scanner (Clariostar: BMG, Buckinghamshire, UK). The percentage inhibition for each well was calculated and the MIC50, MIC75 and MIC90 values were calculated from the concentration-response curve generated for each test compound.

[2] = test system: Aspergillus fumigatus TR46 (TR46/Y121F/T289A); assay: Planktonic fungus growth: broth microdilution assay (TR46); conditions: for MIC: Aspergillus fumigatus, read-out: MIC75 Values against Aspergillus fumigatus isolate TR46
Protocol: as §1, §2

[3] = test system: Aspergillus fumigatus NCPF7099; assay: Planktonic fungus growth: broth microdilution assay (NCPF7099)
Protocol: as §1, §2

[4] = test system: Aspergillus fumigatus L98H (TR34/L98H); assay: Planktonic fungus growth: broth microdilution assay (L98H); conditions: for MIC: Aspergillus fumigatus, read-out: MIC75 Values against Aspergillus fumigatus isolate L98H
Protocol: as §1, §2

[5] = test system: Aspergillus fumigatus NCPF7100; assay: Planktonic fungus growth: broth microdilution assay (NCPF7100); conditions: for MIC: Aspergillus fumigatus, NCPF7100, read-out: MIC75 Values against Aspergillus fumigatus isolate NCPF7100
BEAS2B cells = assay: Cell viability: resazurin assay; conditions: for effect on the viability of BEAS2B bronchial epithelial cells: at concentrations indicated in Table 4
Protocol: (§3) BEAS2B cells were seeded in 384-well plates (100 μL; 3000/well/; BD Falcon, Catalogue No 353962) in RPMI-LHC8 (RPMI-1640 and LHC8 media combined in equal proportions) one day before experimentation. For cell-free control wells, RPMI-LHC8 (100 μL) was added. Test compounds (0.5 μL of a DMSO solution) were added to give a final DMSO concentration of 0.5% using an Integra VIAFLO 96 (Integra, Zizers, Switzerland). BEAS2B cells were incubated with each test compound for 1 day (37° C./5% CO2 in RPMI-LHC8). After addition of resazurin stock solution (5 μL, 0.04%) the plates were incubated for a further 4 hr (37° C./5% CO2). The fluorescence of each well at 545 nm (excitation) and 590 nm (emission) was determined using a multi-scanner (Clariostar: BMG Labtech). The percentage loss of cell viability was calculated for each well relative to vehicle (0.5% DMSO) treatment. Where appropriate, a CC50 value was calculated from the concentration-response curve generated from the concentration-response curve for each test compound.

[6] = test system: Aspergillus fumigatus (azole resistant strain: TR34/L98H); assay: Aspergillus fumigatus infection of human alveoli bilayers (transwells), azole resistant strain; conditions: TR34-L98H, Compound 0.3 μg/mL upper chamber, posaconazole 0.1 μg/mL lower chamber, combination of both
Protocol: In vitro models of human alveoli, consisting of a bilayer of human alveolar epithelial cells and endothelial cells, were prepared as previously described (Hope et al., 2007). This system allows administration of a test compound to the upper (“air” space) and/or lower (“systemic” space) compartments. This flexibility has been exploited to explore the effects of combination treatment by dosing Compound (I) to the upper chamber and posaconazole or other anti-fungal agents to the lower chamber. Primary human pulmonary artery endothelial cells (HPAEC) were harvested and diluted to 10^6 cells/mL in EGM-2 media (Lonza, Basel, Switzerland). Transwells were inverted and the cell suspension (100 μL/well) applied to the base of each transwell. The inverted transwells were incubated at RT within a flow hood for 2 hr after which they were turned upright. EGM-2 media was added to the lower (700 μL/well) and upper (100 μL/well) compartments and the transwells were incubated for 48 hr (37° C., 5% CO2). The EGM-2 media in the lower compartment was then replaced with fresh EGM-2 media. A549 cells were harvested and diluted to 5×10^5 cells/mL in 10% EBM, then added to the upper compartment (100 μL/well) of all transwells and the plates incubated for 72 hr (37° C., 5% CO2). Conidia of itraconazole sensitive Aspergillus fumigatus s (NCPF2010) and itraconazole resistant (TR34-L98H) strains were cultured separately in Sabouraud dextrose agar for 3 days. A stock conidia suspension of either strain was prepared from a Sabouraud dextrose agar culture by washing with PBS-tween (10 mL; PBS containing 0.05% Tween-20, 100 U/mL Penicillin and 100 U/mL Streptomycin). The conidia count was assessed using a Neubauer haemocytometer and adjusted to 10^6 conidia/mL with PBS. A working stock of conidia was prepared in EBM (10^5 conidia/mL) immediately prior to use.
Test and reference compounds (or neat DMSO as the vehicle) were added to the appropriate wells of 24-well plates (3 μL/well containing 600 μL of 2% FBS EBM) for lower compartment treatment and to 96-well plates (1 μL/well containing 200 μL of 2% FBS EBM) for the treatment of the upper compartment, to provide a final DMSO concentration of 0.5%. The media in the upper compartment was aspirated and that containing the appropriate test and reference compounds, or vehicle, were added (100 μL/well). Transwells were then transferred into the 24-well plate containing the test and reference compounds or DMSO vehicle. After incubation for 1 hr (35° C., 5% CO2) the conidia suspension (10 μL/well) was added to the upper compartment of each transwell. Plates were then incubated for 24 hr (35° C., 5% CO2). Supernatants from each compartment (5 μL/compartment) were collected and stored (−20° C.). Media was replaced daily after collection of the supernatants and all wells were treated with test and reference compounds or with DMSO, as described above, for 3 days. Samples continued to be collected until fungal growth was visible by eye in all transwells. The levels of GM in the supernatant in lower compartment were then measured by ELISA (BioRad, CA, USA) as an index of Aspergillus fumigatus invasion.

[7] = Cell viability: resazurin assay; conditions: human, BEAS2B cells; 1 day incubation, resazurin; n = 3
Protocol: as §3

[8] = test system: Aspergillus fumigatus (NCPF2010); assay: Aspergillus fumigatus infection of BEAS2B bronchial epithelial cells (galactomannan); conditions: NCPF2010, 24 h, read-out: Infection of BEAS2B cells MIC50
Protocol: BEAS2B cells were seeded in 96-well plates (100 μL; 3×10^4 cells/well; Catalogue No 3596, Sigma Aldrich, Dorset, UK) in 10% FBS RPMI-1640 and were then incubated (37° C., 5% CO2) for one day before experimentation. Test compounds (0.5 μL DMSO solution) or vehicle (DMSO) were added to each well to give a final DMSO concentration of 0.5%. BEAS2B cells were incubated with test compounds for 1 hr (35° C., 5% CO2) before infection with Aspergillus fumigatus (20 uL; Public Health England) conidia suspension (0.5×10^5/mL in 10% FBS RPMI-1640). The plate was incubated for 24 hr (35° C., 5% CO2). Supernatant (50 uL) was collected and transferred to a PCR plate (Catalogue No L1402-9700, Starlab, Milton Keynes, UK), which was frozen (−20° C.) until use. After thawing, supernatant (5 μL) was diluted 1:20 by adding R7-PBS solution (95 μL; 1:4 R7 to PBS; Bio-Rad Laboratories, Redmond, Wash., USA). Galactomannan levels in these samples (50 μL) were measured using Platelia GM-EIA kits (Bio-Rad Laboratories, Redmond, Wash., USA). The percentage inhibition for each well was calculated and the IC50 value was calculated from the concentration-response curve generated for each test compound.

[9] = broth microdilution assay, n = 2-3
[10] = Aspergillus fumigatus, NCPF2010, n = 2-3, read-out: MIC75 Values against Aspergillus fumigatus isolate NCPF2010
[11] = Aspergillus fumigatus, NCPF7099, n = 2-3, read-out: MIC75 Values against Aspergillus fumigatus isolate NCPF7099

Row | SMILES | MIC [1, 10] | MIC [2] | MIC [3, 11] | MIC [4] | MIC [5] | effect on the viability of BEAS2B bronchial epithelial cells (BEAS2B cells) | CC50 at 1 day [7] | other results
1 | C[C@@H]1[C@H](O)[C@@H](C)/C=C/C=C/C=C/C=C/C=C/C=C/C=C/[C@H](O[C@@H]2O[C@H](C)[C@@H](O)[C@H](N)[C@@H]2O)C[C@@H]2O[C@](O)(C[C@@H](O)C[C@@H](O)[C@H](O)CC[C@@H](O)C[C@@H](O)CC(=O)O[C@H]1C)C[C@H](O)[C@H]2C(=O)O [Amphotericin B, reference compound] | – | – | – | – | – | – | – | MIC ([1]; n = 2-3, read-out: MIC75 Values against Aspergillus fumigatus isolate NCPF2010): 0.407 µM (≈ 0.376 µg/mL); MIC75 Values against Aspergillus fumigatus isolate TR46 [2, 9]: 0.187 µM (≈ 0.173 µg/mL); MIC ([3]; n = 2-3, read-out: MIC75 Values against Aspergillus fumigatus isolate NCPF7099): 0.248 µM (≈ 0.229 µg/mL); MIC75 Values against Aspergillus fumigatus isolate L98H [4, 9]: 0.195 µM (≈ 0.18 µg/mL); MIC75 Values against Aspergillus fumigatus isolate NCPF7100 [5, 9]: 0.523 µM (≈ 0.483 µg/mL); CC50 (BEAS2B cells; 1 day incubation, resazurin, n = 3): 2.34 µM
2 | Cc1cc(N2CCN(c3ccc(C(=O)NC4CCCCC4O)cc3)CC2)ccc1OC[C@@H]1CO[C@@](Cn2cncn2)(c2ccc(F)cc2F)C1 (stereo partly drawn) [Compound (I), 4-(4-(4-(((3R,5R)-5-((1H-1,2,4-triazol-1-yl)methyl)-5-(2,4-difluorophenyl)tetrahydrofuran-3-yl)methoxy)-3-methylphenyl)piperazin-1-yl)-N-(2-hydroxycyclohexyl)benzamide] | – | – | – | – | – | – | – | GM Levels in the Lower Chamber, OD value ([6]; Day 0): 0 OD; GM Levels in the Lower Chamber, % inhibition vs. vehicle control ([6]; Day 1): 98%; GM Levels in the Lower Chamber, OD value ([6]; Day 1): 0.016 OD; GM Levels in the Lower Chamber, % inhibition vs. vehicle control ([6]; Day 2): 24%; GM Levels in the Lower Chamber, OD value ([6]; Day 2): 0.84 OD; GM Levels in the Lower Chamber, % inhibition vs. vehicle control ([6]; Day 3): 4.6%; GM Levels in the Lower Chamber, OD value ([6]; Day 3): 1.01 OD; DFB50: Days taken to reach a fungal burden of 50% of control [6]: 1.53 days
3 | Cc1cc(N2CCN(c3ccc(C(=O)N[C@@H]4CCCC[C@H]4O)cc3)CC2)ccc1OC[C@@H]1CO[C@@](Cn2cncn2)(c2ccc(F)cc2F)C1 [Compound (Ib), 4-(4-(4-(((3R,5R)-5-((1H-1,2,4-triazol-1-yl)methyl)-5-(2,4-difluorophenyl)tetrahydrofuran-3-yl)methoxy)-3-methylphenyl)piperazin-1-yl)-N-((1R,2R)-2-hydroxycyclohexyl)benzamide] | 0.00802 µM (≈ 0.00551 µg/mL) | 0.334 µM (≈ 0.229 µg/mL) | 0.0862 µM (≈ 0.0592 µg/mL) | 0.303 µM (≈ 0.208 µg/mL) | 0.0873 µM (≈ 0.06 µg/mL) | no or little effect | > 14.6 µM | –
4 | Cc1cc(N2CCN(c3ccc(C(=O)N[C@H]4CCCC[C@H]4O)cc3)CC2)ccc1OC[C@@H]1CO[C@@](Cn2cncn2)(c2ccc(F)cc2F)C1 [Compound (Ic), 4-(4-(4-(((3R,5R)-5-((1H-1,2,4-triazol-1-yl)methyl)-5-(2,4-difluorophenyl)tetrahydrofuran-3-yl)methoxy)-3-methylphenyl)piperazin-1-yl)-N-((1S,2R)-2-hydroxycyclohexyl)benzamide] | 0.00227 µM (≈ 0.00156 µg/mL) | 0.164 µM (≈ 0.113 µg/mL) | 0.0115 µM (≈ 0.0079 µg/mL) | 0.0549 µM (≈ 0.0377 µg/mL) | 0.0109 µM (≈ 0.00749 µg/mL) | no or little effect | > 14.6 µM | MIC50 [8]: 0.00186 µM (≈ 0.00128 µg/mL)
5 | Cc1cc(N2CCN(c3ccc(C(=O)N[C@@H]4CCCC[C@@H]4O)cc3)CC2)ccc1OC[C@@H]1CO[C@@](Cn2cncn2)(c2ccc(F)cc2F)C1 [Compound (Id), 4-(4-(4-(((3R,5R)-5-((1H-1,2,4-triazol-1-yl)methyl)-5-(2,4-difluorophenyl)tetrahydrofuran-3-yl)methoxy)-3-methylphenyl)piperazin-1-yl)-N-((1R,2S)-2-hydroxycyclohexyl)benzamide] | 0.00851 µM (≈ 0.00584 µg/mL) | 0.316 µM (≈ 0.217 µg/mL) | 0.0117 µM (≈ 0.00804 µg/mL) | 0.07 µM (≈ 0.0481 µg/mL) | 0.0252 µM (≈ 0.0173 µg/mL) | no or little effect | > 14.6 µM | –
